Experimental data: patent publication US10357536B2, “Anti-pathogenic methods” (Hexima Limited, priority 2012, dated 2019)
“Also recorded” adds a separate entry of the source. No end group written: not given here.

Experiments:
hyphal cells = format: cell-based
Fgr hyphae = format: cell-based, Fusarium graminearum
Fov hyphae = format: cell-based, Fusarium oxysporum f. sp vasinfectum

Substance | Permeabilizing (hyphal cells) | Permeability index (Fgr hyphae) | permeabilization of Fgr hyphae (SYTOX green uptake), in words (Fgr hyphae) | Permeability index (Fov hyphae) | permeabilization of Fov hyphae (SYTOX green uptake), in words (Fov hyphae)
HXL005: Class I plant defensin, Taraxacum kok-saghyz, mature domain SEQ ID NO: 15 (KMCQTTSHAFSCVNDSGCSGSCEKQGFASGKCDGVRRRCTCYKKC; HXL005 Taraxacum kok-saghyz mature domain) | No |  |  |  | 
HXL013: Class I plant defensin, Glycine max, mature domain SEQ ID NO: 39; Table 2 gives SBI6 the same SEQ ID NO (KDCLTRRHGFQGRCLFDRQCAHVCRSDGPIGGQCRGPLRKCFCSRPC; HXL013 Glycine max mature domain aa) | Yes | 1.4 | permeabilizing |  | 
HXL004: Class I plant defensin, Nicotiana benthamiana, mature domain SEQ ID NO: 12 (RTCESQSHRFKGLCFSRSNCASVCHTEGFNGGHCRGFRRRCFCTRHC; HXL004 Nicotiana benthamiana mature domain aa) | Yes | 1.6 | significantly more permeabilisation of Fgr hyphae; also recorded: permeabilizing |  | 
HXL009: Class I plant defensin, Zea mays, mature domain SEQ ID NO: 27 (TVCMRHNNFYHGPCMSNKDCANSCVQHNLGVGGYCRGKIPFNKECMCTFEC; HXL009 Zea mays mature domain aa) | No | 0.4 | non-permeabilizing |  | 
NaD1: Class II plant defensin, Nicotiana alata, accession Q8GTM0; positive control of the permeabilization assay (RECKTESNTFPGICITKPPCRKACISEKFTDGHCSKILRRCLCTKPC; UniProt Q8GTM0 26-72, looked up) [reference compound] | Yes | 1.0 | significantly more permeabilisation of Fgr hyphae; also recorded: permeabilizing | 1.0 | able to permeabilize Fov hyphae; also recorded: permeabilizing
HXP35: artificial variant defensin, SEQ ID NO: 72 (RECKTESDTYRGVCITKPPCRKACISEKFTDGHCSKILRRCLCTKPC; Amino acid sequence of HXP35 (PsD1 Loop1B [PsDL1B] in NaD1)) | Yes |  |  |  | 
HXL015: Class I plant defensin, Oryza sativa, mature domain SEQ ID NO: 45 (RHCLSQSHRFKGMCVSSNNCANVCRTESFPDGECKSHGLERKCFCKKVC; HXL015 Oryza sativa mature domain aa) | No |  |  |  | 
RsAFP2: Class I plant defensin, Raphanus sativus, accession P30230 (QKLCQRPSGTWSGVCGNNNACKNQCIRLEKARHGSCNYVFPAHKCICYFPC; ends and bridges not checked; cysteine pairing not given here; UniProt P30230 30-80, looked up) | No | 0.3 | non-permeabilizing |  | 
HXL007: Class I plant defensin, Cyamopsis tetragonoloba, mature domain SEQ ID NO: 21 (RTCESLADTYRGPCFTDGSCDDHCKNKEHLISGRCRNDFRCWCTRNC; HXL007 Cyamopsis tetragonoloba mature domain) | Yes |  |  | 1.2 | able to permeabilize Fov hyphae; also recorded: permeabilizing
VP135: Class I plant defensin, Picramnia pentandra, mature domain SEQ ID NO: 85 (RICSSLSHGYKGPCASDHNCALVCRNEGFSGGDCHGLRRRCFCTKAC; VP135 mature domain) | No |  |  |  | 
HXP4: artificial variant defensin, SEQ ID NO: 70 (RECKTESHRFKGPCITKPPCRKACISEKFTDGHCSKILRRCLCTKPC; Amino acid sequence of HXP4 (NaD2 Loop1B [NaD2L1B] in NaD1)) | Yes | 1.3 | significantly more permeabilisation of Fgr hyphae; also recorded: permeabilizing | 0.7 | able to permeabilize Fov hyphae; also recorded: permeabilizing
HXL001: Class I plant defensin, Zea mays, mature domain SEQ ID NO: 3 (RHCLSQSHRFKGLCMSSNNCANVCETQNFPGGECKAEGATRKCFCKKIC; HXL001 Zea mays mature domain) | Yes | 0.9 |  |  | 
HXL008: Class I plant defensin, Picramnia pentandra, mature domain SEQ ID NO: 24 (KVCTKPSKFFKGLCGTDGACTTACRKEGLHSGYCQLKGFLNSVCVCRKHC; HXL008 Picramnia pentandra mature domain aa) | Yes | 0.9 | significantly more permeabilisation of Fgr hyphae; also recorded: permeabilizing | 0.8 | able to permeabilize Fov hyphae; also recorded: permeabilizing
HXP34: artificial variant defensin, SEQ ID NO: 71 (RECKTESQHHSFPCITKPPCRKACISEKFTDGHCSKILRRCLCTKPC; Amino acid sequence of HXP34 (Zea2 Loop1B [Zea2L1B] in NaD1)) | Yes |  |  |  | 
VP45: Class I plant defensin, Zea mays, mature domain SEQ ID NO: 83 (TVCMRHNNFYHGPCMSNKDCANSCVQHNLGVGGYCRGKIPFNKECMCTFEC; VP45 mature domain) | No |  |  |  | 
HXL021: Class I plant defensin, Arachis hypogaea, mature domain SEQ ID NO: 63 (ATCENLADTYRGPCFTTGSCDDHCKNKEHLLSGRCRDDFRCWCTRNC; HXL021 Arachis hypogaea mature domain aa) | No | 0.5 | non-permeabilizing |  | 
VP42: Class I plant defensin, Triticum aestivum, mature domain SEQ ID NO: 81 (RHCESQSHRYRGACWRDDNCKHVCNTEGFPSGKCKFHGFESKCVCTKPC; VP42 mature domain) | No |  |  |  | 
NoD173: Class II plant defensin, Nicotiana occidentalis, mature domain SEQ ID NO: 98 (RQCKAESNTFTGICIAKPPCRQACIREKFTDGHCSKVLRRCLCTKRC; NoD173 Nictoniana occidentalis) | Yes |  |  |  | 
Hordothionin: Class I plant defensin, Hordeum vulgare, accession P20230 | No | 0.4 | non-permeabilizing |  | 
HXL002: Class I plant defensin, Triticum aestivum, mature domain SEQ ID NO: 6 (RDCLSQSHKFKGACLSSSNCAAVCRTENFPDGECHTHNFARKCFCKRAC; HXL002 Triticum aestivum mature domain) | Yes | 1.0 | significantly more permeabilisation of Fgr hyphae; also recorded: permeabilizing | 0.9 | able to permeabilize Fov hyphae; also recorded: permeabilizing
